Results taken from ChEMBL document CHEMBL5576128, “Discovery of Potent Isoquinolinequinone N-Oxides to Overcome Cancer Multidrug Resistance” (J Med Chem, 2024).
Calls of active or inactive are those of the source. No cut-off for these calls is given here.

Assays:
[1] = test system: Doxorubicin-resistant NCI-H460/R; assay: Effect on human Doxorubicin-resistant NCI-H460/R cells […] assessed as change in circularity at 0.35 to 0.7 uM incubated for 48 hrs; type: functional, cell-based; settings: dose 0.35-0.7 µM
[2] = test system: Paclitaxel-resistant DLD1-TxR cells; assay: Effect on human Paclitaxel-resistant DLD1-TxR cells […] assessed as change in compactness at 0.35 to 0.7 uM incubated for 48 hrs; type: functional, cell-based; settings: dose 0.35-0.7 µM
[3] = test system: Doxorubicin-resistant NCI-H460/R; assay: Inhibition of human Doxorubicin-resistant NCI-H460/R cells spheroid viability by CellTiter-Glo 3D viability assay; type: functional, cell-based
[4] = test system: NCI-H460; assay: Induction of cell cycle arrest in human NCI-H460 cells assessed as increase in sub-G1 phase cells at 0.35 to 0.7 uM incubated for 48 hrs by propidium iodide staining based flow cytometry analysis; type: functional; settings: dose 0.35-0.7 µM
[5] = test system: DLD-1; assay: Effect on human DLD-1 cells […] assessed as change in compactness at 0.35 to 0.7 uM incubated for 48 hrs; type: functional, cell-based; settings: dose 0.35-0.7 µM
[6] = test system: NCI-H460; assay: Induction of DNA damage in human NCI-H460 cells at 0.7 uM incubated for 48 hrs by Western blotting analysis; type: functional, cell-based
[7] = test system: DLD-1; assay: Effect on human DLD-1 cells […] assessed as change in circularity at 0.35 to 0.7 uM incubated for 48 hrs; type: functional, cell-based; settings: dose 0.35-0.7 µM
[8] = test system: NCI-H460; assay: Upregulation of p-histone H2A.X expression in human NCI-H460 cells at high concentration incubated for 48 hrs by Western blotting analysis; type: functional, cell-based
[9] = test system: NCI-H460; assay: Induction of apoptosis in human NCI-H460 cells at 0.35 to 0.7 uM incubated for 48 hrs by Annexin-V FITC/propidium iodide staining based flow cytometry analysis; type: functional, cell-based; settings: dose 0.35-0.7 µM
[10] = test system: NCI-H460; assay: Downregulation of procaspase-3 expression in human NCI-H460 cells at 0.35 to 0.7 uM incubated for 48 hrs by Western blotting analysis; type: functional, cell-based; settings: dose 0.35-0.7 µM
[11] = test system: NCI-H460; assay: Upregulation of cyclin D1 expression in human NCI-H460 cells at 0.35 to 0.7 uM incubated for 48 hrs by Western blotting analysis; type: functional, cell-based; settings: dose 0.35-0.7 µM
[12] = test system: Doxorubicin-resistant NCI-H460/R; assay: Effect on human Doxorubicin-resistant NCI-H460/R cells […] assessed as change in diameter at 0.35 to 0.7 uM incubated for 48 hrs; type: functional, cell-based; settings: dose 0.35-0.7 µM
[13] = test system: DLD-1; assay: Inhibition of human DLD-1 cells spheroid viability by CellTiter-Glo 3D viability assay; type: functional, cell-based
[14] = test system: NCI-H460; assay: Inhibition of cell growth in human NCI-H460 cells incubated for 48 hrs by trypan blue exclusion assay; type: functional, cell-based
[15] = test system: Doxorubicin-resistant NCI-H460/R; assay: Effect on human Doxorubicin-resistant NCI-H460/R cells […] assessed as change in compactness at 0.35 to 0.7 uM incubated for 48 hrs; type: functional, cell-based; settings: dose 0.35-0.7 µM
[16] = test system: Paclitaxel-resistant DLD1-TxR cells; assay: Effect on human Paclitaxel-resistant DLD1-TxR cells […] assessed as change in diameter at 0.35 to 0.7 uM incubated for 48 hrs; type: functional, cell-based; settings: dose 0.35-0.7 µM
[17] = test system: NCI-H460; assay: Effect on LC3-II expression in human NCI-H460 cells at 0.35 to 0.7 uM incubated for 48 hrs by Western blotting analysis; type: functional, cell-based; settings: dose 0.35-0.7 µM
[18] = test system: NCI-H460; assay: Effect on human NCI-H460 cells […] assessed as change in diameter at 0.35 to 0.7 uM incubated for 48 hrs; type: functional, cell-based; settings: dose 0.35-0.7 µM
[19] = test system: Paclitaxel-resistant DLD1-TxR cells; assay: Inhibition of human Paclitaxel-resistant DLD1-TxR cells spheroid viability by CellTiter-Glo 3D viability assay; type: functional, cell-based
[20] = test system: NCI-H460; assay: Inhibition of cell proliferation in human NCI-H460 cells at 0.35 to 0.7 uM incubated for 48 hrs by BrdU incorporation assay; type: functional, cell-based; settings: dose 0.35-0.7 µM
[21] = test system: NCI-H460; assay: Effect on p62 expression in human NCI-H460 cells at 0.35 to 0.7 uM incubated for 48 hrs by Western blotting analysis; type: functional, cell-based; settings: dose 0.35-0.7 µM
[22] = molecular target: ATP-dependent translocase ABCB1 (Homo sapiens, UniProt P08183); assay: Inhibition of P-gp mediated drug efflux in human NCI-H460 cells assessed as accumulation of rhodamine-123 accumulation at 10 to 20 uM incubated for 1 hr by flow cytometry analysis; type: cell-based; settings: nci-h460, 1 h, dose 10-20 µM
Sequence of ATP-dependent translocase ABCB1 (P08183 whole entry): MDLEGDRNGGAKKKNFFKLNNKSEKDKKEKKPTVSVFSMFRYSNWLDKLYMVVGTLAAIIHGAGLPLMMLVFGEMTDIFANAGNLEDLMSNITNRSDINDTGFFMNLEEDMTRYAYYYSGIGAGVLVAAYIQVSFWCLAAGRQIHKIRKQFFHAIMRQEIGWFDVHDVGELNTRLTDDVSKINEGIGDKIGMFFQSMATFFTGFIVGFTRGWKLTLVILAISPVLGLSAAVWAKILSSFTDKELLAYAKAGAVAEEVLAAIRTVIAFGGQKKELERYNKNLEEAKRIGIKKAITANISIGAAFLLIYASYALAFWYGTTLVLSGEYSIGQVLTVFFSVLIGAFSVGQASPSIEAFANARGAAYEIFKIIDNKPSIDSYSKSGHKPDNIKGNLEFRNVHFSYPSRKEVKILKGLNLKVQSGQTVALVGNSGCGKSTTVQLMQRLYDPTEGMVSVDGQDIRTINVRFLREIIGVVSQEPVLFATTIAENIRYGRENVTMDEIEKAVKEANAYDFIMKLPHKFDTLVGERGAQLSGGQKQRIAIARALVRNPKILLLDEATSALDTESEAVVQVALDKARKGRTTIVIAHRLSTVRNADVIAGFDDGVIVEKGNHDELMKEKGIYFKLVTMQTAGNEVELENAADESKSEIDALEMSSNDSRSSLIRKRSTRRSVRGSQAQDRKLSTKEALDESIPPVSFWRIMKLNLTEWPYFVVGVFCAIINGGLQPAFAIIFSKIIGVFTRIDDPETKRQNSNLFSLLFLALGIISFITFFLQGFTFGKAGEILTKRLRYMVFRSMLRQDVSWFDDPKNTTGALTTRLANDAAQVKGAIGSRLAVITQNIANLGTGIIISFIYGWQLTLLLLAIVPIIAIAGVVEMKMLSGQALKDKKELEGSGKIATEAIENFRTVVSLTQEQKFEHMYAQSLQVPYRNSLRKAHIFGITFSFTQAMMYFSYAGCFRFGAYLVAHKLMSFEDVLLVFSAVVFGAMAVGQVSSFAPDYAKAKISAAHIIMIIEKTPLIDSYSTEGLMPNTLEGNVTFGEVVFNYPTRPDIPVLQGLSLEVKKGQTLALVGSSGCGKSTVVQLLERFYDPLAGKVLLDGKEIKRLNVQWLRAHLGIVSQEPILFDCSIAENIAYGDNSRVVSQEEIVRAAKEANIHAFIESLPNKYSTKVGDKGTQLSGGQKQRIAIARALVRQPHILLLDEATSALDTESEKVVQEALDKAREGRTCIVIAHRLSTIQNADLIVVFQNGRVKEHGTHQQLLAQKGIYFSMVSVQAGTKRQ

[23] = test system: NCI-H460; assay: Effect on PARP-1 expression in human NCI-H460 cells at 0.35 to 0.7 uM incubated for 48 hrs by Western blotting analysis; type: functional, cell-based; settings: dose 0.35-0.7 µM
[24] = test system: NCI-H460; assay: Induction of ROS accumulation in human NCI-H460 cells at 0.7 to 5 uM incubated for 6 hrs by CM-H2DCFDA staining based flow cytometry analysis; type: functional, cell-based; settings: dose 0.7-5 µM
[25] = test system: NCI-H460; assay: Upregulation of TP53BP1 expression in human NCI-H460 cells at high concentration incubated for 48 hrs by Western blotting analysis; type: functional, cell-based
[26] = test system: NCI-H460; assay: Induction of cell cycle arrest in human NCI-H460 cells assessed as increase in G1 phase cells at 0.35 to 0.7 uM incubated for 48 hrs by propidium iodide staining based flow cytometry analysis; type: functional; settings: dose 0.35-0.7 µM
[27] = test system: NCI-H460; assay: Induction of cell cycle arrest in human NCI-H460 cells assessed as decrease in S phase cells at 0.35 to 0.7 uM incubated for 48 hrs by propidium iodide staining based flow cytometry analysis; type: functional; settings: dose 0.35-0.7 µM
[28] = test system: NCI-H460; assay: Upregulation of p21 expression in human NCI-H460 cells at 0.7 uM incubated for 48 hrs by Western blotting analysis; type: functional, cell-based
[29] = test system: MRC5; assay: Cytotoxicity against human MRC5 cells at less than 0.5 uM incubated for 48 hrs by SRB method; type: toxicity, cell-based; settings: mrc5, 48 h
[30] = test system: NCI-H460; assay: Upregulation of p53 expression in human NCI-H460 cells at 0.35 to 0.7 uM incubated for 48 hrs by Western blotting analysis; type: functional, cell-based; settings: dose 0.35-0.7 µM
[31] = test system: NCI-H460; assay: Effect on human NCI-H460 cells […] assessed as change in circularity at 0.35 to 0.7 uM incubated for 48 hrs; type: functional, cell-based; settings: dose 0.35-0.7 µM
[32] = test system: MCF-12A; assay: Cytotoxicity against human MCF-12A cells at 1 to 5 uM incubated for 48 hrs by SRB method; type: toxicity, cell-based; settings: dose 1-5 µM
[33] = test system: NCI-H460; assay: Effect on LC3-I expression in human NCI-H460 cells at 0.35 to 0.7 uM incubated for 48 hrs by Western blotting analysis; type: functional, cell-based; settings: dose 0.35-0.7 µM
[34] = test system: DLD-1; assay: Effect on human DLD-1 cells […] assessed as change in diameter at 0.35 to 0.7 uM incubated for 48 hrs; type: functional, cell-based; settings: dose 0.35-0.7 µM
[35] = test system: Paclitaxel-resistant DLD1-TxR cells; assay: Effect on human Paclitaxel-resistant DLD1-TxR cells […] assessed as change in circularity at 0.35 to 0.7 uM incubated for 48 hrs; type: functional, cell-based; settings: dose 0.35-0.7 µM
[36] = test system: NCI-H460; assay: Inhibition of human NCI-H460 cells spheroid viability by CellTiter-Glo 3D viability assay; type: functional, cell-based
[37] = test system: NCI-H460; assay: Effect on human NCI-H460 cells […] assessed as change in compactness at 0.35 to 0.7 uM incubated for 48 hrs; type: functional, cell-based; settings: dose 0.35-0.7 µM
[38] = test system: NCI/ADR-RES; assay: Potency index, ratio of doxorubicin GI50 to test compound GI50 for human NCI/ADR-RES cells; type: functional
[39] = test system: Doxorubicin-resistant NCI-H460/R; assay: Inhibition of human Doxorubicin-resistant NCI-H460/R cells […] assessed as reduction in viability at 2 uM incubated for 48 hrs; type: functional, cell-based
[40] = test system: NCI-H460; assay: Inhibition of cell proliferation in human NCI-H460 cells at 50 nM incubated for 48 hrs by BrdU incorporation assay; type: functional, cell-based
[41] = test system: NCI-H460; assay: Inhibition of human NCI-H460 cells […] at 50 nM incubated for 48 hrs; type: functional, cell-based

## COC(=O)c1c2c(c[n+]([O-])c1C)C(=O)C=C(NCc1ccccc1)C2=O
[1]
  Activity: inactive
[2]
  Activity: inactive
[3]
  inhibition: Active
[4]
  Activity: Active
[5]
  Activity: inactive
[6]
  Activity: inactive
[7]
  Activity: inactive
[8]
  Activity: Active
[9]
  Activity: inactive
[10]
  Activity: Active
[11]
  Activity: Active
[12]
  Activity: inactive
[13]
  inhibition: Active
[14]
  inhibition: Active
[15]
  Activity: inactive
[16]
  Activity: inactive
[17]
  Activity: inactive
[18]
  Activity: inactive
[19]
  inhibition: Active
[20]
  inhibition: Active
[21]
  Activity: inactive
[22]
  inhibition (INH): Active
[23]
  Activity: inactive
[24]
  Activity: Active
[25]
  Activity: Active
[26]
  Activity: Active
[27]
  Activity: Active
[28]
  Activity: Active
[29]
  Activity: Non-Toxic
[30]
  Activity: inactive
[31]
  Activity: inactive
[32]
  Activity: Non-Toxic
[33]
  Activity: inactive
[34]
  Activity: inactive
[35]
  Activity: inactive
[36]
  inhibition: Active
[37]
  Activity: inactive

## COC(=O)c1c2c(c(C)[n+]([O-])c1C)C(=O)C=C(NCc1ccccc1)C2=O
[38]
  RatioGI50: 40

## COc1cc([C@@H]2c3cc4c(cc3[C@@H](O[C@@H]3O[C@@H]5CO[C@@H](C)O[C@H]5[C@H](O)[C@H]3O)[C@H]3COC(=O)[C@H]23)OCO4)cc(OC)c1O
[39]
  Activity: inactive

## COc1cccc2c1C(=O)c1c(O)c3c(c(O)c1C2=O)C[C@@](O)(C(=O)CO)C[C@@H]3O[C@H]1C[C@H](N)[C@H](O)[C@H](C)O1
[40]
  inhibition: Active
[41]
  inhibition: inactive
